# Measured values published in the supplement of paper PMC4862054.
# What was measured:
# Details in all cases: incubation time: 72 h
# [1] = tested on: BT-474; test: normalised response (% of control), CellTox Green; higher = less cell death (100 = DMSO, 0 = benzethonium chloride kill control)
# Summary of the method: (§1)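 The table gives the normalised signal for a single concentration in each entry. Breast cancer cell lines were seeded (20 µl suspension) into 384-well plates holding compound at 5 concentrations in 10-fold steps over a compound-specific 10,000-fold range and incubated 72 h, then read for CellTox Green fluorescence (485/520 nm) and CellTiter-Glo luminescence. Normalisation on each plate used 0.1 % DMSO (100) and a positive kill control (0).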
# [2] = tested on: BT-549; test: as above
# Summary of the method: as §1
# [3] = tested on: CAL-120; test: as above
# Summary of the method: as §1
# [4] = tested on: CAL-148; test: as above
# Summary of the method: as §1
# [5] = tested on: CAL-51; test: as above
# Summary of the method: as §1
# [6] = tested on: CAL-85-1; test: as above
# Summary of the method: as §1
# [7] = tested on: DU-4475; test: as above
# Summary of the method: as §1
# [8] = tested on: HCC1599; test: as above
# Summary of the method: as §1
# [9] = tested on: HCC1937; test: as above
# Summary of the method: as §1
# [10] = tested on: HDQ-P1; test: as above
# Summary of the method: as §1
# [11] = tested on: Hs578T; test: as above
# Summary of the method: as §1
# [12] = tested on: MCF-10A; test: as above
# Summary of the method: as §1
# [13] = tested on: MDA-MB-231; test: as above
# Summary of the method: as §1
# [14] = tested on: MDA-MB-436; test: as above
# Summary of the method: as §1
# [15] = tested on: MDA-MB-453; test: as above
# Summary of the method: as §1
# [16] = tested on: MFM-223; test: as above
# Summary of the method: as §1
# [17] = tested on: BT-474; test: normalised response (% of control), CellTiter-Glo; higher = more viable cells (100 = DMSO, 0 = benzethonium chloride kill control)
# Experimental: (§2)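 DSRT, 72 h incubation, CellTox Green / CellTiter-Glo readout. Signal is normalised to DMSO and benzethonium chloride controls. Value is the normalised response at dose 3.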
# [18] = tested on: BT-549; test: as above
# Experimental: as §2
# [19] = tested on: CAL-120; test: as above
# Experimental: as §2
# [20] = tested on: CAL-148; test: as above
# Experimental: as §2
# [21] = tested on: CAL-51; test: as above
# Experimental: as §2
# [22] = tested on: CAL-85-1; test: as above
# Experimental: as §2
# [23] = tested on: DU-4475; test: as above
# Experimental: as §2
# [24] = tested on: HCC1143; test: as above
# Experimental: as §2
# [25] = tested on: HCC1599; test: as above
# Experimental: as §2
# [26] = tested on: HCC1937; test: as above
# Experimental: as §2
# [27] = tested on: HDQ-P1; test: as above
# Experimental: as §2
# [28] = tested on: Hs578T; test: as above
# Experimental: as §2
# [29] = tested on: MCF-10A; test: as above
# Experimental: as §2
# [30] = tested on: MDA-MB-231; test: as above
# Experimental: as §2
# [31] = tested on: MDA-MB-436; test: as above
# Experimental: as §2
# [32] = tested on: MDA-MB-453; test: as above
# Experimental: as §2
# [33] = tested on: MDA-MB-468; test: as above
# Experimental: as §2
# [34] = tested on: MFM-223; test: as above
# Experimental: as §2
# [35] = tested on: SK-BR-3; test: as above
# Experimental: as §2
# [36] = tested on: HCC1143; test: normalised response (% of control), CellTox Green; higher = less cell death (100 = DMSO, 0 = benzethonium chloride kill control)
# Summary of the method: as §1
# [37] = tested on: MDA-MB-468; test: as above
# Summary of the method: as §1
Compound,normalised response [1] [%],normalised response [2] [%],normalised response [3] [%],normalised response [4] [%],normalised response [5] [%],normalised response [6] [%],normalised response [7] [%],normalised response [8] [%],normalised response [9] [%],normalised response [10] [%],normalised response [11] [%],normalised response [12] [%],normalised response [13] [%],normalised response [14] [%],normalised response [15] [%],normalised response [16] [%],normalised response [17] [%],normalised response [18] [%],normalised response [19] [%],normalised response [20] [%],normalised response [21] [%],normalised response [22] [%],normalised response [23] [%],normalised response [24] [%],normalised response [25] [%],normalised response [26] [%],normalised response [27] [%],normalised response [28] [%],normalised response [29] [%],normalised response [30] [%],normalised response [31] [%],normalised response [32] [%],normalised response [33] [%],normalised response [34] [%],normalised response [35] [%],normalised response [36] [%],normalised response [37] [%]
Cc1ccc(C(=O)N(CCCN)[C@@H](c2oc3cc(Cl)ccc3c(=O)c2Cc2ccccc2)C(C)C)cc1 (1 nM),101,93.7,83.7,93.5,74.1,113,103,88.1,97,100,104,107,102,108,104,100,95,101,102,84.9,65.8,107,96.6,103,104,94.3,105,94.8,97,103,105,91.4,93.9,91.4,88.2,–,–
NC(=O)Nc1cc(-c2cccc(F)c2)sc1C(=O)N[C@H]1CCCNC1 [AZD7762] (10 nM),101,96.5,99.8,96,113,100,99.5,116,107,108,–,102,104,91,105,104,105,101,106,106,106,97.5,102,110,91.3,95,94,94.5,99.5,104,104,81.9,102,103,103,105,104
CO[C@H]1/C=C\C=C(/C)C(=O)NC2=CC(=O)C(NCCN(C)C)=C(C[C@@H](C)C[C@H](OC)[C@H](O)[C@@H](C)/C=C(\C)[C@@H]1OC(N)=O)C2=O [Alvespimycin] (10 nM),93.9,89.8,97.3,108,110,95.8,101,111,118,90.8,–,94.8,85.3,89.8,96.9,104,104,63.4,106,110,101,104,103,99,106,94.8,89.5,103,115,106,76.8,89.1,94.8,88.1,72.3,105,116
N.N.[Cl][Pt][Cl] [Cisplatin] (10 nM),104,115,108,103,94.8,112,114,102,90.6,109,78.4,115,114,–,106,105,102,107,108,82.8,90.6,94.7,96.6,103,104,97.7,101,96.4,106,103,103,90.5,85.3,99.8,93.5,109,–
COc1cc2ncnc(Nc3ccc(F)c(Cl)c3)c2cc1NC(=O)/C=C/CN1CCCCC1 [Dacomitinib] (10 nM),98.8,102,105,101,105,90.5,104,88.8,–,50,–,108,103,103,98,100,100,105,100,103,91,84.2,104,102,99.7,98.1,77,108,56.4,106,100,96,78.8,103,77.3,80,68.7
CC(C)Cn1cnc2c(N)nc3ccccc3c21 [Imiquimod] (25 nM),102,87.2,96.9,–,90.4,98.1,102,103,102,74.9,51.6,91.9,100,101,61.1,105,104,103,101,110,81.8,99.9,107,107,101,94.8,101,107,103,102,104,97.4,104,107,106,81.4,–
Cc1ccc(C(=O)Nc2ccc(CN3CCN(C)CC3)c(C(F)(F)F)c2)cc1C#Cc1cnc2cccnn12 [Ponatinib] (10 nM),100,94.4,102,95.3,99.5,103,101,101,–,–,–,99.1,–,73.4,105,77.6,105,104,106,106,106,99.5,101,99.5,89.4,94.3,105,99.1,111,99.6,109,105,106,88.4,106,69.8,93.2
CNCc1ccc(-c2[nH]c3cc(F)cc4c3c2CCNC4=O)cc1 [Rucaparib] (100 nM),95.5,71.6,98.9,97.4,91.6,97.5,95.7,94.4,–,104,108,–,87,83.3,102,73.3,93,106,92.8,86,84.1,99.1,97.2,99.3,109,99.2,98.3,99.8,93.6,99.2,90.6,91.3,104,88.8,90,104,–
Clc1ccc(Nc2nnc(Cc3ccncc3)c3ccccc23)cc1 [Vatalanib] (100 nM),99.6,105,102,107,110,77.6,101,106,115,109,111,103,102,–,64,103,103,109,99.1,112,89.3,103,105,106,109,103,101,106,111,105,111,106,108,107,102,117,–
